Measured values as given in ChEMBL document CHEMBL1131914, “Carbohydroxamido-oxazolidines: antibacterial agents that target lipid A biosynthesis” (Bioorg Med Chem Lett, 1999).
Converted amounts (≈) assume the structure as drawn. Each block holds one compound with its values, some of them ahead of it. The source made the active and inactive calls. No cut-off for these calls is given here.

Tests used:
[1] = target: T1, UDP-3-O-acyl-N-acetylglucosamine deacetylase (Escherichia coli K-12, UniProt P0A725); experiment: Inhibition of UDP-3-O-[R-3-hydroxymyristoyl]-GlcNAc deacetylase using coupled radiochemical assay (WAVE) in Escherichia coli strain JB 1104
T1 sequence (P0A725 whole entry): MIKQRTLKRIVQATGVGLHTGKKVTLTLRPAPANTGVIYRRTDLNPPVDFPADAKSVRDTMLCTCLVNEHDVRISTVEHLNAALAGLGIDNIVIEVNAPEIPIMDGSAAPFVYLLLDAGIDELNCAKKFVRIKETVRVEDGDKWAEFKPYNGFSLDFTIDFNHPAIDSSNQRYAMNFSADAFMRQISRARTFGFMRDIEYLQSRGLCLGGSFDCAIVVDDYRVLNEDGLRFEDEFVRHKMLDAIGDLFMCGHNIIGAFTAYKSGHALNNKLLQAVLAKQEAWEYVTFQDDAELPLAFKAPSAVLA

Escherichia coli [2] = experiment: Antibacterial activity of against Escherichia coli mutant (envA1) was determined.; type: functional, organism-based
[3] = target: T1, UDP-3-O-acyl-N-acetylglucosamine deacetylase; experiment: Inhibition of UDP-3-O-[R-3-hydroxymyristoyl]-GlcNAc deacetylase using direct deacetylase assay (DEACET) in Escherichia coli strain JB 1104
Escherichia coli [4] = experiment: Antibacterial activity against Escherichia coli was determined; type: functional
Escherichia coli [5] = experiment: Antibacterial activity against Escherichia coli mutant (envA1) was determined; type: functional
Pseudomonas = experiment: Antibacterial activity against Pseudomonas was determined; NA=not active; type: functional, organism-based
Serratia = experiment: Antibacterial activity against Serratia was determined; NA=not active; type: functional, organism-based
Escherichia coli [6] = experiment: Antibacterial activity against Escherichia coli mutant (envA1) was determined; Ranges from 0.008-0.016; type: functional
Escherichia coli [7] = experiment: Antibacterial activity against Escherichia coli was determined; Ranges from 1-3; type: functional
Escherichia coli [8] = experiment: Antibacterial activity against Escherichia coli was determined; Ranges from 25-50; type: functional
Escherichia coli [9] = experiment: Antibacterial activity against Escherichia coli was determined; Ranges from 200-400; type: functional
Escherichia coli [10] = experiment: Antibacterial activity against Escherichia coli was determined; Ranges from […]; type: functional

Compound: CCc1ccc(C2=N[C@@H](C(=O)NO)CO2)cc1
IC50 ([1]; read-out: IC50): 0.2 µM
MIC (Escherichia coli [2]): inactive
IC50 [3]: 0.6 µM

IC50 ([1]; read-out: IC50): > 400 µM
Compound: CN(O)C(=O)[C@H]1COC(c2ccccc2)=N1

Compound: CCCc1cc(C2=NC(C(=O)NO)CO2)cc(OCc2ccccc2)c1OC (configuration not stated)
MIC (Escherichia coli [4]): 25 µg/mL (≈ 65 µM)
MIC (Escherichia coli [5]): < 0.008 µg/mL
IC50 [3]: 0.02 µM

Compound: O=C(NO)[C@@H]1COC(c2ccccc2)=N1
IC50 ([1]; read-out: IC50): 360 µM

Compound: CCCc1cc(C2=N[C@@H](C(=O)NO)CO2)cc(OC)c1OC
MIC (Pseudomonas): inactive
MIC (Serratia): inactive
MIC (Escherichia coli [6]): 0.008 µg/mL (≈ 0.0259 µM)
MIC (Escherichia coli [7]): 1 µg/mL (≈ 3.24 µM)
IC50 [3]: 0.03 µM

Compound: Cc1ccc(C2=NC(C(=O)NO)CO2)cc1 (configuration not stated)
IC50 ([1]; read-out: IC50): 1.7 µM
MIC (Escherichia coli [2]): inactive

Compound: Cc1cccc(C2=NC(C(=O)NO)CO2)c1 (configuration not stated)
IC50 ([1]; read-out: IC50): 1.1 µM
MIC (Escherichia coli [2]): inactive

IC50 ([1]; read-out: IC50): > 400 µM
Compound: CN(OCc1ccccc1)C(=O)[C@H]1COC(c2ccccc2)=N1

Compound: COc1ccc(C2=N[C@@H](C(=O)NO)CO2)cc1
IC50 ([1]; read-out: IC50): 0.3 µM
MIC (Escherichia coli [8]): 25 µg/mL (≈ 106 µM)
MIC (Escherichia coli [5]): 0.25 µg/mL (≈ 1.06 µM)
IC50 [3]: 1.4 µM

Compound: CCCc1cc(C2=NC(C(=O)NO)CO2)cc(OC)c1O (configuration not stated)
MIC (Escherichia coli [4]): > 100 µg/mL
MIC (Escherichia coli [5]): 0.39 µg/mL (≈ 1.33 µM)
IC50 [3]: 1.4 µM

Compound: CCCc1cccc(C2=N[C@@H](C(=O)NO)CO2)c1
IC50 ([1]; read-out: IC50): 0.05 µM
MIC (Escherichia coli [4]): 12.5 µg/mL (≈ 50.3 µM)
MIC (Escherichia coli [5]): 0.06 µg/mL (≈ 0.242 µM)
IC50 [3]: 1.6 µM

Compound: O=C(NO)C1COC(c2cccnc2)=N1 (configuration not stated)
MIC (Escherichia coli [2]): inactive
IC50 [3]: 100 µM

IC50 ([1]; read-out: IC50): > 400 µM
Compound: O=C(O)C1COC(c2ccccc2)=N1 (configuration not stated)

Compound: O=C(NO)C1COC(c2c(Cl)cccc2Cl)=N1 (configuration not stated)
IC50 [1]: Not Active
MIC (Escherichia coli [2]): inactive
IC50 [3]: > 200 µM

Compound: COc1cc(C2=N[C@@H](C(=O)NO)CO2)cc(OC)c1OC
MIC (Escherichia coli [2]): inactive
IC50 [3]: 0.3 µM

Compound: CCCc1ccc(C2=N[C@@H](C(=O)NO)CO2)cc1
IC50 ([1]; read-out: IC50): 0.1 µM
MIC (Escherichia coli [2]): inactive

Compound: O=C(NO)C1COC(c2ccncc2)=N1 (configuration not stated)
MIC (Escherichia coli [2]): inactive
IC50 [3]: 100 µM

Compound: O=C(NO)[C@H]1COC(c2ccco2)=N1
IC50 ([1]; read-out: IC50): 9 µM
MIC (Escherichia coli [2]): inactive

Compound: O=C(NO)C1COC(c2ccccc2Cl)=N1 (configuration not stated)
IC50 [3]: 30 µM

Compound: CCCc1cc(C2=NC(C(=O)NO)CO2)cc(O)c1OC (configuration not stated)
MIC (Escherichia coli [4]): 12.5 µg/mL (≈ 42.5 µM)
MIC (Escherichia coli [5]): 0.06 µg/mL (≈ 0.204 µM)
IC50 [3]: 0.1 µM

Compound: O=C(NO)C1COC(c2ccccc2)=N1 (configuration not stated)
IC50 ([1]; read-out: IC50): 3 µM
MIC (Escherichia coli [9]): 200 µg/mL (≈ 970 µM)
MIC (Escherichia coli [5]): 3.6 µg/mL (≈ 17.5 µM)
IC50 [3]: 8.5 µM

Compound: CCCc1cc(C2=NC(C(=O)NO)CO2)cc(OC)c1OC (configuration not stated)
MIC (Escherichia coli [10]): 3 µg/mL (≈ 9.73 µM)
MIC (Escherichia coli [5]): < 0.05 µg/mL
IC50 [3]: 0.05 µM

Compound: Cc1ccccc1C1=NC(C(=O)NO)CO1 (configuration not stated)
IC50 ([1]; read-out: IC50): 2.6 µM
MIC (Escherichia coli [2]): inactive

Compound: CCCc1cc(C2=NC(C(=O)NO)CO2)ccc1OC (configuration not stated)
MIC (Escherichia coli [4]): 12.5 µg/mL (≈ 44.9 µM)
MIC (Escherichia coli [5]): 0.1 µg/mL (≈ 0.359 µM)
IC50 [3]: 0.3 µM

IC50 ([1]; read-out: IC50): > 400 µM
Compound: COC(=O)C1COC(c2ccccc2)=N1 (configuration not stated)

Compound: O=C(NO)[C@H]1COC(c2ccccc2)=N1
IC50 ([1]; read-out: IC50): 1.5 µM
IC50 [3]: 6 µM
